As a reminder, the IC50 is the concentration needed to halve the response being measured. The inhibition is the share of the control response that was lost under treatment. As a reminder, the EC50 is the concentration that produces a half-maximal response.

Data on 16 molecules can be found in US10183944B2 (Asana Biosciences, LLC, priority 2011, dated 2019).

Structures can show the parent of a compound that is named as a salt. Some results are limits rather than exact numbers.

In assay [1] the target is JAK2 (Homo sapiens (Human), UniProt O60674). Kind of assay: Inhibition of enzymatic JAK2 kinase activity (TR-FRET). Format: biochemical. To be noted: read-out: IC50 JAK. The gist of the method: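 Enzyme preincubated with compound 30 min at RT, then Ulight-poly-GT substrate and ATP added for 60 min at RT. EDTA stop, Eu-antiphosphotyrosine antibody; TR-FRET ratio 665/615 nm (ex 340 nm), blank-corrected; % inhibition versus positive control.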
Background: TR-FRET usually uses a lanthanide donor and a delayed reading to cut background.

The target in assay [2] is Syk (356-635 amino acids) catalytic domain (Homo sapiens (Human), UniProt P43405). Kind of assay: Inhibition of enzymatic Syk kinase activity (radiometric). Format: biochemical. The settings on record: read-out: IC50 Syk. The gist of the method: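 Human Syk (356-635) kinase domain (0.035–7.5 ng/reaction) preincubated with compound 30 minutes at room temperature, then reacted with pG4T substrate, 100 μM ATP (stock) and γ-32P-ATP for 10 minutes at 30° C. Reaction stopped with HCl/ATP, spotted on P81 paper, washed and counted by scintillation. Percent inhibition versus no-compound counts.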

Assay [3] has as its system RBL2H3 cells. Kind of assay: Degranulation assay: β-hexosaminidase release during immune complex mediated degranulation. It is filed as cell-based, rat. To be noted: Rattus norvegicus, RBL-2H3, Assay Protocol B (96 well format); for inhibition at 1 µM: read-out: Degranulation % inhibition at 1 μM; for EC50: read-out: Degranulation EC50. The gist of the method: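 RBL2H3 cells sensitized overnight (or 24 h) with anti-DNP rat IgE, pretreated 15 min with compounds in 0.5% DMSO, then challenged with DNP-BSA for 45–60 min. β-Hexosaminidase in supernatant read fluorometrically (Ex 355/Em 460 nm) with β-NAG substrate, 30 min RT; % release/inhibition calculated.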

Sequence of JAK2 (O60674 808-1132): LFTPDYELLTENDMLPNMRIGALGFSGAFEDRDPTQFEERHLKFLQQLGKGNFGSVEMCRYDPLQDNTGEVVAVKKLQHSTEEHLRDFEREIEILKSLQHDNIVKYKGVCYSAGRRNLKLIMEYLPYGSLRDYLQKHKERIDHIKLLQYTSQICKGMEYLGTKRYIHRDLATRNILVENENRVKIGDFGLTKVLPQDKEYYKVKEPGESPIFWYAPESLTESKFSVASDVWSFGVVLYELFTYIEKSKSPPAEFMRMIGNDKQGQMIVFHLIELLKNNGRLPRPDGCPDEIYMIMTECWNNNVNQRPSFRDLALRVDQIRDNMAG

On to `O=C(O)CC1CCN(c2ccc(Nc3nc(N4CCCCCCC4)nc4cn[nH]c(=O)c34)cc2)CC1` [Example 88, 2-(1-(4-((2-(azocan-1-yl)-5-oxo-5,6-dihydropyrimido[4,5-d]pyridazin-4-yl)amino)phenyl)piperidin-4-yl)acetic acid], for which the IC50 in assay [1] and in assay [2] was less than 10 nM in each case. The inhibition at 1 µM in assay [3] was 100%. The EC50 in assay [3] is 76 nM.
Take `O=C(O)CC1CCC(c2ccc(Nc3nc(N4CCCCCC4)nc4cn[nH]c(=O)c34)cc2)CC1` (centres unmarked) [Example 91, 2-(4-(4-((2-(azepan-1-yl)-5-oxo-5,6-dihydropyrimido[4,5-d]pyridazin-4-yl)amino)phenyl)cyclohexyl)acetic acid]: the IC50 in assay [1] was less than 50 nM; in assay [2], less than 10 nM. Further, the inhibition at 1 µM in assay [3] was determined as 100%. The EC50 in assay [3] is 154 nM.
Turning to `O=C(O)CCCOc1ccc(Nc2nc(N3CCCCCC3)nc3cn[nH]c(=O)c23)cc1` [Example 92, 4-(4-((2-(azepan-1-yl)-5-oxo-5,6-dihydropyrimido[4,5-d]pyridazin-4-yl)amino)phenoxy)butanoic acid], the IC50 in assay [1] was less than 50 nM. Besides, in assay [2], the IC50 is less than 10 nM. Moreover, in assay [3], the inhibition at 1 µM was 100% and the EC50 came out at 111 nM.
In the case of `O=c1[nH]ncc2nc(N3CCCCCC3)nc(Nc3ccc(OCCN4CCOCC4)cc3)c12` [Example 93, 2-(azepan-1-yl)-4-((4-(2-morpholinoethoxy)phenyl)amino) pyrimido[4,5-d]pyridazin-5(6H)-one], the IC50 in assay [1] and in assay [2] was less than 50 nM each time. Besides, in assay [3], the inhibition at 1 µM was found to be 49%.
Turning to `CN1CCN(CCOc2ccc(Nc3nc(N4CCCCCC4)nc4cn[nH]c(=O)c34)cc2)CC1` [Example 95, 2-(azepan-1-yl)-4-((4-(2-(4-methylpiperazin-1-yl)ethoxy)phenyl)amino)pyrimido[4,5-d]pyridazin-5(6H)-one], the IC50 in assay [1] and in assay [2] was less than 50 nM each time. Further, the inhibition at 1 µM in assay [3] was found to be 35%.
As to `O=C(O)CC1CCN(CCOc2ccc(Nc3nc(N4CCCCCC4)nc4cn[nH]c(=O)c34)cc2)CC1` [Example 96, 2-(1-(2-(4-((2-(azepan-1-yl)-5-oxo-5,6-dihydropyrimido[4,5-d]pyridazin-4-yl)amino)phenoxy)ethyl)piperidin-4-yl) acetic acid], in assay [1], the IC50 was less than 10 nM. For the same molecule, the IC50 in assay [2] is less than 10 nM. In addition, in assay [3], the inhibition at 1 µM is 85% and the EC50 was 280 nM.
For the molecule `O=C(O)C1CCN(CCOc2ccc(Nc3nc(N4CCCCCC4)nc4cn[nH]c(=O)c34)cc2)CC1` [Example 98, 1-(2-(4-((2-(azepan-1-yl)-5-oxo-5,6-dihydropyrimido[4,5-d]pyridazin-4-yl)amino)phenoxy)ethyl)piperidine-4-carboxylic acid], the IC50 in assay [1] and in assay [2] was less than 50 nM in each case. For the same molecule, the inhibition at 1 µM in assay [3] turned out to be 62%. Also, the EC50 in assay [3] was 593 nM.
As to `NC(=O)CC1CCN(c2ccc(Nc3nc(N4CCCCCC4)nc4cn[nH]c(=O)c34)cn2)CC1` [Example 99, 2-(1-(5-((2-(azepan-1-yl)-5-oxo-5,6-dihydropyrimido[4,5-d]pyridazin-4-yl)amino)pyridin-2-yl)piperidin-4-yl) acetamide], the IC50 is less than 50 nM in assay [1] and less than 10 nM in assay [2]. Moreover, the inhibition at 1 µM in assay [3] is 94%. Also, the EC50 in assay [3] came out at 44 nM.
On to `O=C(c1ccc(Nc2nc(N3CCCCCC3)nc3cn[nH]c(=O)c23)cc1)N1CCNCC1` [Example 104, 2-(azepan-1-yl)-4-((4-(piperazine-1-carbonyl)phenyl)amino)pyrimido[4,5-d]pyridazin-5(6H)-one hydrochloride], for which, in assay [1], the IC50 was less than 10 nM. Moreover, in assay [2], the IC50 was less than 50 nM. In assay [3], the inhibition at 1 µM worked out at 100% and the EC50 is 110 nM.
For `O=c1[nH]ncc2nc(N3CCCCCC3)nc(Nc3ccc(OCCN4CCNCC4)cc3)c12` [Example 107, 2-(azepan-1-yl)-4-((4-(2-(piperazin-1-yl)ethoxy)phenyl)amino)pyrimido[4,5-d]pyridazin-5(6H)-one], the IC50 in assay [1] was less than 50 nM. Besides, the IC50 in assay [2] was less than 10 nM. In addition, in assay [3], the inhibition at 1 µM was found to be 91% and the EC50 was determined as 94 nM.
For `N#CCC1CCN(c2nc(Nc3ccc(N4CCC(CC(=O)O)CC4)nc3)c3c(=O)[nH]ncc3n2)CC1` [Example 116, 2-(1-(5-((2-(4-(cyanomethyl)piperidin-1-yl)-5-oxo-5,6-dihydropyrimido[4,5-d]pyridazin-4-yl)amino)pyridin-2-yl)piperidin-4-yl)acetic acid], in that order: less than 50 nM, less than 50 nM, 65% and 273 nM.
As for `O=C(CC1CCN(c2ccc(Nc3nc(N4CCCCCC4)nc4cn[nH]c(=O)c34)cc2)CC1)N(CCO)CCO` [Example 118, 2-(1-(4-((2-(azepan-1-yl)-5-oxo-5,6-dihydropyrimido[4,5-d]pyridazin-4-yl)amino)phenyl)piperidin-4-yl)-N,N-bis(2-hydroxyethyl)acetamide], the IC50 in assay [1] is less than 10 nM. Also, the IC50 in assay [2] was less than 50 nM. In assay [3], the inhibition at 1 µM came to 87% and the EC50 was found to be 153 nM.
On to `CC1CN(c2nc(Nc3ccc(N4CCC(CC(=O)O)CC4)cc3)c3c(=O)[nH]ncc3n2)CC(C)O1` (centres unmarked) [Example 121, 2-(1-(4-((2-(2,6-dimethylmorpholino)-5-oxo-5,6-dihydropyrimido[4,5-d]pyridazin-4-yl)amino)phenyl)piperidin-4-yl)acetic acid], for which, in assay [1], the 50% inhibitory concentration (IC50) is less than 50 nM. The IC50 in assay [2] was less than 50 nM. For the same molecule, in assay [3], the inhibition at 1 µM worked out at 98% and the EC50 worked out at 156 nM.
For `O=C(O)C[C@H]1CC[C@@H](c2ccc(Nc3nc(N4CCCCCC4)nc4cn[nH]c(=O)c34)cc2)CC1` [Example 123, 2-((1S,4S)-4-(4-((2-(azepan-1-yl)-5-oxo-5,6-dihydropyrimido[4,5-d]pyridazin-4-yl)amino)phenyl)cyclohexyl)acetic acid], the IC50 in assay [1] is less than 10 nM. Further, the IC50 in assay [2] was less than 10 nM. For the same molecule, in assay [3], the inhibition at 1 µM came out at 90% and the EC50 came out at 116 nM.
With `O=C(O)C1CC1C1CCN(c2ccc(Nc3nc(N4CCCCCC4)nc4cn[nH]c(=O)c34)cc2)CC1` (centres unmarked) [Example 131, 2-(1-(4-((2-(azepan-1-yl)-5-oxo-5,6-dihydropyrimido[4,5-d]pyridazin-4-yl)amino)phenyl)piperidin-4-yl) cyclopropanecarboxylic acid], the IC50 in assay [1] is less than 10 nM. Besides, the IC50 in assay [2] was less than 10 nM. Moreover, in assay [3], the inhibition at 1 µM amounted to 98% and the EC50 is 35 nM.
As to `O=C(O)CCC1CCN(c2ccc(Nc3nc(-c4ccccc4)nc4cn[nH]c(=O)c34)cc2)CC1` [Example 132, 3-(1-(4-((5-oxo-2-phenyl-5,6-dihydropyrimido[4,5-d]pyridazin-4-yl)amino)phenyl)piperidin-4-yl)propanoic acid], the IC50 in assay [1] was less than 10 nM. For the same molecule, the IC50 in assay [2] is less than 50 nM. In assay [3], the inhibition at 1 µM was found to be 99% and the EC50 was determined as 24 nM.
